How the values were obtained:
[1] = target: human mGluR5a receptors (Homo sapiens (Human), UniProt P41594); assay: Inhibition of glutamate-induced elevation of intracellular calcium in L(tk−) cells expressing human mGluR5a receptors; format: cell-based; conditions: read-out: mGluR5 IC50
Source text: Activity of compounds of the present invention was examined by determination to what extent the glutamate-induced elevation of the intracellular calcium concentration in L(tk−) cells expressing human mGluR5a receptors (see L. P. Daggett et al., Neuropharm. Vol. 34, pages 871-886, 1995) is inhibited by utilizing methods as described e.g. by L. P. Daggett et al., Neuropharm. Vol. 34, pages 871-886 (1995) and P. J. Flor et al., J. Neurochem. Vol. 67, pages 58-63 (1996).
(§1) Activity of compounds of the present invention with respect to mGluR1 antagonism was examined by an assay based on measurements of L-glutamate induced intracellular calcium increases using a 96 well plate-based Fluorometric Imaging Plate Reader (FLIPR), and CHO cells stably expressing human mGluR1.

[2] = target: human mGluR1 (Homo sapiens (Human), UniProt Q13255); assay: mGluR1 antagonism: L-glutamate induced intracellular calcium increases, FLIPR, CHO cells stably expressing human mGluR1; format: cell-based; conditions: inhibition of glutamate-induced elevation of intracellular calcium
Source text: as §1, with “mGluR1. L-glutamate induced robust calcium responses via human mGluR1 in a concentration-dependent manner and in the low micromolar range. The table below represents IC50 values of the inhibition of the glutamate-induced elevation of the intracellular calcium concentration.” for “mGluR1.”

Sequence of human mGluR1 (Q13255 19-1194): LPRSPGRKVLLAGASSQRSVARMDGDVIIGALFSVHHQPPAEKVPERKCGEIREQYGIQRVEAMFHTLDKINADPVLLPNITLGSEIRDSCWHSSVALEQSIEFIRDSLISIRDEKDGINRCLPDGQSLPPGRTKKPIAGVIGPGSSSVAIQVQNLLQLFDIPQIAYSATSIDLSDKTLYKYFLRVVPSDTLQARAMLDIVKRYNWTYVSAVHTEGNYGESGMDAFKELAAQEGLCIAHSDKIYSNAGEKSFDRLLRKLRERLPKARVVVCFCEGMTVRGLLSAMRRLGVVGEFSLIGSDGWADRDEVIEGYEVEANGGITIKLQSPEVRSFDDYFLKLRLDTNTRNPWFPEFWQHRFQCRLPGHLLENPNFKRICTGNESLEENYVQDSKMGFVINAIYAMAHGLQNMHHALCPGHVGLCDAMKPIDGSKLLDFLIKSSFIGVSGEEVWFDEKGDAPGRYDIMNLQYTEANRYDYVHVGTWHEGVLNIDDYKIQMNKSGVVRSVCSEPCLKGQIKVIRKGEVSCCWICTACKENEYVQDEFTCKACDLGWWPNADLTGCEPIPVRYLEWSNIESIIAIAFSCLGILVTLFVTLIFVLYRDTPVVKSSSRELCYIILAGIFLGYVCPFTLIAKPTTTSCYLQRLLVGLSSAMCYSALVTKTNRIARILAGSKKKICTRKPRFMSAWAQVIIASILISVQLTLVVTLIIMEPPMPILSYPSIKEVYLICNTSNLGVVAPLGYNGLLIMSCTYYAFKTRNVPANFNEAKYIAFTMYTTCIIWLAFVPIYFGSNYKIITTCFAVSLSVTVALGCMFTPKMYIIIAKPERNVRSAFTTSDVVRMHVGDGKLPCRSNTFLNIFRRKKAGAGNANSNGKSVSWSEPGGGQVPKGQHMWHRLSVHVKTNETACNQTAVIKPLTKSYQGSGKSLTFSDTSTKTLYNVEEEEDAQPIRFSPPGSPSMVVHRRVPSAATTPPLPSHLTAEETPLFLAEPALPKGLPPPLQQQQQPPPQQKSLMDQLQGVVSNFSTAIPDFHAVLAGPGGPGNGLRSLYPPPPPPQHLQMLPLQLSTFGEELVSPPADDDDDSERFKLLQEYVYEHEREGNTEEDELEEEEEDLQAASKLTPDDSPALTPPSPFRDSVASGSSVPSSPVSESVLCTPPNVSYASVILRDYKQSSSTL
Sequence of human mGluR5a receptors (P41594 other isoform, or with tags, fused parts or gaps): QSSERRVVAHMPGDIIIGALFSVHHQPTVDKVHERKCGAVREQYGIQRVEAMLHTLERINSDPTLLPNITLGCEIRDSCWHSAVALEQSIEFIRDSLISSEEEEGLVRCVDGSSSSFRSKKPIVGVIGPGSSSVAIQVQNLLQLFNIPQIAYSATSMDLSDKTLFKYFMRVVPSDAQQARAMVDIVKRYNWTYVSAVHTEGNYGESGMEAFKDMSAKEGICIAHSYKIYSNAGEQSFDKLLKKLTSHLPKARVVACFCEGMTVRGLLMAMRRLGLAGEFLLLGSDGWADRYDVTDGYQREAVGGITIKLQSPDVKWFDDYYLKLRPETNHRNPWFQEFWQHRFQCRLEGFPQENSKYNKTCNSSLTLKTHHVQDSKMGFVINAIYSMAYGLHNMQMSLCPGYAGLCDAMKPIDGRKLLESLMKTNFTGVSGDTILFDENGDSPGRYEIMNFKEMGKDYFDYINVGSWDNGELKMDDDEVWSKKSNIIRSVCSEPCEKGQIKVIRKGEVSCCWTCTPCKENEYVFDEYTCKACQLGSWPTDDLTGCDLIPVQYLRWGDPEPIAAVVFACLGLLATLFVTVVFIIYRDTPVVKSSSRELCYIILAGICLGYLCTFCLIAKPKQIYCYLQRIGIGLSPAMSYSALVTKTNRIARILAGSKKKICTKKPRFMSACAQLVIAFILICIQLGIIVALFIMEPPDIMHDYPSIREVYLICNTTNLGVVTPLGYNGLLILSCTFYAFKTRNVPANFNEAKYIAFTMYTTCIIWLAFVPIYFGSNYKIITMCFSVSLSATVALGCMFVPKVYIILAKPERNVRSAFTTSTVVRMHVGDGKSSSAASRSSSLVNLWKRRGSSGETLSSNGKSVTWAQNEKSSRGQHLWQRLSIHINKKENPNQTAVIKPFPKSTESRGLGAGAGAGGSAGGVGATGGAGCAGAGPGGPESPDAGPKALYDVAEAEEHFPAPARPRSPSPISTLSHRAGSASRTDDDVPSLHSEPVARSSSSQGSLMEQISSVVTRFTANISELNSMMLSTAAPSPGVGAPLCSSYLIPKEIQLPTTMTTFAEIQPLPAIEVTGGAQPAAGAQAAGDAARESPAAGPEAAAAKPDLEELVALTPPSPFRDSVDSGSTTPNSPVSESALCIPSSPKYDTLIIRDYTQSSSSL

IC50 [1]	IC50 [2]	SMILES
495 nM	> 10000 nM	CCc1cn(C2=NCC(=O)N3CCc4c(cccc4C(C)O)C3=C2)cn1 (racemic) [Example 115, 2-(4-ethyl-1H-imidazol-1-yl)-9-(1-hydroxyethyl)-7,8-dihydro-[1,4]diazepino[7,1-a]isoquinolin-5(4H)-one]
10 nM	35 nM	Cn1cc(C2=NCC(=O)N3CCc4c(I)cccc4C3=C2)cn1 [Example 32, 9-iodo-2-(1-methyl-1H-pyrazol-4-yl)-7,8-dihydro-[1,4]diazepino[7,1-a]isoquinolin-5(4H)-one]
340 nM	> 10000 nM	CCOCc1cn(C2=NCC(=O)N3CCc4c(cccc4-c4nc(C)cs4)C3=C2)cn1 [Example 88i, 2-(4-(ethoxymethyl)-1H-imidazol-1-yl)-9-(4-methylthiazol-2-yl)-7,8-dihydro-[1,4]diazepino[7,1-a]isoquinolin-5(4H)-one]

SMILES	IC50 [1]	IC50 [2]
Cc1nc(-c2cccc3c2CCN2C(=O)CN=C(n4cnc(C5CCC5)c4)C=C32)co1 [Example 108b, 2-(4-cyclobutyl-1H-imidazol-1-yl)-9-(2-methyloxazol-4-yl)-7,8-dihydro-[1,4]diazepino[7,1-a]isoquinolin-5(4H)-one]	23 nM	1920 nM
